Consider 24 compounds from patent publication US20110065706A1, “Therapeutic Agents 812” (AstraZeneca AB, priority 2009, published 2011).

The EC50 is the midpoint of the concentration-response curve. Lower therefore signals a more potent agent.

Structures are written as SMILES.

For one experiment, the target named is T1, human GPR119 (Homo sapiens, UniProt Q8TDV5).
T1 construct: expressed in transfected cells; host or cells: HEK 293s
T1 sequence (Q8TDV5 1-335): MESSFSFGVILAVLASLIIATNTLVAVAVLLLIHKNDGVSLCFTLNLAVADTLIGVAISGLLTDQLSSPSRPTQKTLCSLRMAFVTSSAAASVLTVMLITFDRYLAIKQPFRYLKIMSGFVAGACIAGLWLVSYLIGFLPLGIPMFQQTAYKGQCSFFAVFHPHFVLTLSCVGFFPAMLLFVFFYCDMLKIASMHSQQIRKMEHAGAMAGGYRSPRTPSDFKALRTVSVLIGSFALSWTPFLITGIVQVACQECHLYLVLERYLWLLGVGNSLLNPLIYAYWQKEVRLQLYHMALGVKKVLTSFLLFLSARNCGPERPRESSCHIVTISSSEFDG
The experiment can be described thus: Cyclic AMP (HTRF cAMP) assay for human GPR119, Method A. Format: cell-based. To be noted: HEK293S, 0.75 h; Method A; HEK 293s cells over-expressing human GPR119; percent effect at top concentration 30 μM relative to maximum (50 μM Oleoylethanolamide) and minimum (1% DMSO) controls. On the technique in general: Time-resolved FRET reads energy transfer from a long-lived donor to a nearby acceptor.
Turning to `C[C@@H]1CN(C(=O)OC(C)(C)C)CCN1c1ncc(OCc2ccncc2)cn1` [Example 19, (R)-Tert-butyl 3-methyl-4-(5-(pyridin-4-ylmethoxy)pyrimidin-2-yl)piperazine-1-carboxylate], the activation at 30 µM was determined as 68%.

The compound `CC(C)(C)OC(=O)N1CCN(c2ncc(OCc3ccc(-n4cncn4)cc3)cn2)CC1` [Example 2, tert-butyl 4-(5-(4-(1H-1,2,4-triazol-1-yl)benzyl-oxy)pyrimidin-2-yl)piperazine-1-carboxylate] showed an activation at 30 µM of 131%.

The compound `CC(C)(C)OC(=O)N1CCN(c2ncc(OCc3ccc(S(C)(=O)=O)c(F)c3)cn2)CC1` [Example 32, tert-butyl 4-(5-(3-fluoro-4-(methylsulfonyl)benzyloxy)pyrimidin-2-yl)piperazine-1-carboxylate] had an activation at 30 µM of 62%.

`N#Cc1cnccc1COc1cnc(N2CCN(c3ncc(F)cn3)CC2)nc1` [Example 40, 4-((2-(4-(5-Fluoropyrimidin-2-yl)piperazin-1-yl)pyrimidin-5-yloxy)methyl)nicotinonitrile]: the activation at 30 µM came to 90%.

In turn, `Cc1cc(COc2cnc(N3CCN(C(=O)OC(C)(C)C)CC3)nc2)ccc1S(C)(=O)=O` [Example 37, tert-butyl 4-(5-(3-methyl-4-(methylsulf-onyl)benzyl-oxy)pyrimi-din-2-yl)piperazine-1-carboxylate] showed an activation at 30 µM of 52%.

As to `CNC(=O)c1ccc(COc2cnc(N3CCN(C(=O)OC(C)(C)C)CC3)nc2)cc1` [Example 45, tert-butyl 4-(5-(4-(methylcarba-moyl)benzyloxy)pyrimidin-2-yl)piperazine-1-carboxylate], the activation at 30 µM stood at 142%.

Compound `CN(C)CCNC(=O)c1ccc(COc2cnc(N3CCN(C(=O)OC(C)(C)C)CC3)nc2)cc1` [Example 48, tert-butyl 4-(5-(4-(2-(dimethylamino)ethylcarba-moyl)benzyloxy)pyrimidin-2-yl)piperazine-1-carboxylate] registered an activation at 30 µM of 26%.

`CC(=O)Nc1ccc(COc2cnc(N3CCN(C(=O)OC(C)(C)C)CC3)nc2)cn1` [Example 6, tert-butyl 4-(5-((6-acetamido-pyridin-3-yl)methoxy)pyrimidin-2-yl)piperazine-1-carboxylate] returned an activation at 30 µM of 59%.

Turning to `CN1CCC(CNC(=O)c2ccc(COc3cnc(N4CCN(C(=O)OC(C)(C)C)CC4)nc3)cc2)CC1` [Example 52, tert-butyl 4-(5-(4-((1-methylpiper-idin-4-yl)methylcarba-moyl)benzyl-oxy)pyrimidin-2-yl)piperazine-1-carboxylate], the activation at 30 µM stood at 20%.

Consider `CC(C)C(=O)Nc1ncc(COc2cnc(N3CCN(C(=O)OC(C)(C)C)CC3)nc2)cn1` [Example 94, Tert-butyl 4-(5-((2-isobutyramidopyrimidin-5-yl)methoxy)pyrimidin-2-yl)piperazine-1-carboxylate], for which the activation at 30 µM came to 44%.

For `CC(OC(=O)N1CCN(c2ncc(OCc3ccc(S(C)(=O)=O)cc3)cn2)CC1)C(F)(F)F` (stereo not drawn) [Example 66, 1,1,1-Trifluoropropan-2-yl 4-(5-(4-(methylsulfonyl)benzyloxy)pyrimidin-2-yl)piperazine-1-carboxylate], the activation at 30 µM was 56%.

In the case of `CC(C)(C)OC(=O)N1CCN(c2ncc(OCc3ccc(-n4cnnn4)cc3)cn2)CC1` [Example 7, Tert-butyl 4-(5-(4-(1H-tetrazol-1-yl)benzyloxy)pyrimidin-2-yl)piperazine-1-carboxylate], the activation at 30 µM turned out to be 170%.

For the compound `CC(C)(C)OC(=O)N1CCN(c2ncc(OCc3ccc(S(C)(=O)=O)cn3)cn2)CC1` [Example 31, tert-butyl 4-(5-((5-(methylsulfonyl)pyridin-2-yl)methoxy)pyrimidin-2-yl)piperazine-1-carboxylate], the activation at 30 µM was 86%.

Take `CC(C)(C)OC(=O)N1CCN(c2ncc(OCc3ccc(C(=O)N4CCNCC4)cc3)cn2)CC1` [Example 50, tert-butyl 4-(5-(4-(piperazine-1-carbonyl)benz-yloxy)pyrimi-din-2-yl)piperazine-1-carboxylate]: the activation at 30 µM was determined as 23%.

Consider `CN1CCN(C(=O)c2ccc(COc3cnc(N4CCN(C(=O)OC(C)(C)C)CC4)nc3)cc2)CC1` [Example 51, tert-butyl 4-(5-(4-(4-methylpiper-azine-1-carbonyl)benz-yloxy)pyrimi-din-2-yl)piperazine-1-carboxylate], for which the activation at 30 µM stood at 42%.

In turn, `CC(C)(C#N)OC(=O)N1CCN(c2ncc(OCc3ccc(S(C)(=O)=O)cc3)cn2)CC1` [Example 70, 2-Cyanopropan-2-yl 4-(5-(4-(methylsulfonyl)benzyloxy)pyrimidin-2-yl)piperazine-1-carboxylate] displayed an activation at 30 µM of 28%.

The compound `C[S+]([O-])c1ccc(COc2cnc(N3CCN(C(=O)OC(C)(C)C)CC3)nc2)cc1` (stereo not drawn) [Example 93, Tert-butyl 4-(5-(4-(methylsulfinyl)benzyloxy)pyrimidin-2-yl)piperazine-1-carboxylate] had an activation at 30 µM of 82%.

For `CC1(OC(=O)N2CCN(c3ncc(OCc4ccncc4C#N)cn3)CC2)CC1` [Example 62, 1-methylcyclo-propyl 4-(5-((3-cyanopyridin-4-yl)methoxy)pyrimidin-2-yl)piperazine-1-carboxylate], the activation at 30 µM came out at 208%.

`Cc1cc(S(C)(=O)=O)ccc1COc1cnc(N2CCN(C(=O)OC(C)(C)C)CC2)nc1` [Example 33, tert-butyl 4-(5-(2-methyl-4-(methylsulfonyl)benzyloxy)pyrimidin-2-yl)piperazine-1-carboxylate]: the activation at 30 µM is 82%.

On to `CN(C)CCN(C)C(=O)c1ccc(COc2cnc(N3CCN(C(=O)OC(C)(C)C)CC3)nc2)cc1` [Example 49, tert-butyl 4-(5-(4-((2-(dimethylamino)ethyl)(methyl)carbamoyl)benzyloxy)pyrim-idin-2-yl)piperazine-1-carboxylate], for which the activation at 30 µM was determined as 27%.

On to `CC(C)(C)OC(=O)N1CCN(c2ncc(OCc3ccc(S(=O)(=O)C4CC4)cc3)cn2)CC1` [Example 84, Tert-butyl 4-(5-(4-(cyclopropyl-sulfonyl)benzyloxy)pyrimidin-2-yl)pipcrazinc-1-carboxylate], for which the activation at 30 µM came out at 48%.

Turning to `CC(C)(C)OC(=O)N1CCN(c2ncc(OCc3ccc(NC(=O)C(C)(C)C)cc3)cn2)CC1` [Example 15, tert-butyl 4-(5-(4-pivalamido-benzyloxy)pyrimidin-2-yl)piperazine-1-carboxylate], the activation at 30 µM stood at 80%.

The experiment is the same for the next values; noted with them: Method A; HEK 293s cells over-expressing human GPR119; midpoint of dose response curve; selected examples.
`Cc1cc(COc2cnc(N3CCN(C(=O)OC(C)(C)C)CC3)nc2)ccc1S(C)(=O)=O` [Example 37, tert-butyl 4-(5-(3-methyl-4-(methylsulf-onyl)benzyl-oxy)pyrimi-din-2-yl)piperazine-1-carboxylate]: the response was half-maximal at 20 nM (EC50).

`CC1(OC(=O)N2CCN(c3ncc(OCc4ccncc4C#N)cn3)CC2)CC1` [Example 62, 1-methylcyclo-propyl 4-(5-((3-cyanopyridin-4-yl)methoxy)pyrimidin-2-yl)piperazine-1-carboxylate] gave a half-maximal effective concentration (EC50) of 116 nM.

In turn, `CN(C)CCN(C)C(=O)c1ccc(COc2cnc(N3CCN(C(=O)OC(C)(C)C)CC3)nc2)cc1` [Example 49, tert-butyl 4-(5-(4-((2-(dimethylamino)ethyl)(methyl)carbamoyl)benzyloxy)pyrim-idin-2-yl)piperazine-1-carboxylate] returned an EC50 of 2040 nM.

The same experiment, now with this note: human GPR119 cAMP assay; top concentration 30 μM.
Turning to `COc1cc(COc2cnc(N3CCN(C(=O)OC(C)(C)C)CC3)nc2)cc(OC)n1` [tert-butyl 4-[5-[(2,6-dimethoxy-4-pyridyl)methoxy]pyrimidin-2-yl]piperazine-1-carboxylate], the “significant activity at a top concentration of 30 μM” value is given as “did not show significant activity”.

As for `CN1CCC(N(C)C(=O)c2ccc(COc3cnc(N4CCN(C(=O)OC(C)(C)C)CC4)nc3)cc2)CC1` [tert-butyl 4-[5-[[4-[methyl-(1-methyl-4-piperidyl)carbamoyl]phenyl]methoxy]pyrimidin-2-yl]piperazine-1-carboxylate], the “significant activity at a top concentration of 30 μM” value is reported as “did not show significant activity”.
